By IC50 is commonly meant the midpoint of a concentration-inhibition curve. A high value points to weaker potency.

This note sets out measurements from US7071335B2, “2-pyridinyl-1-piperazine therapeutic agents useful for treating pain” (Euro-Celtique S.A., priority 2002, dated 2006).

Assay type in all cases: cell-based
Assay [1] deals with T1, rat mGluR5 (Rattus norvegicus, UniProt P31424).
T1 construct: expressed in transfected cells; host or cells: CHO cells (CHO-rat mGluR5, kept under Geneticin selection)
Description: CHO assay: calcium mobilization flux (FLIPR) in CHO-rat mGluR5 cells in the presence of glutamate. To be noted: at a concentration of 10 μM, 10 uM glutamate. The protocol:
40,000 CHO-rat mGluR5 cells/well were plated into 96 well plate (Costar 3409, Black, clear bottom, 96 well, tissue culture treated) for an overnight incubation in Dulbelcco's Modified Eagle's Medium (DMEM, pH 7.4) and supplemented with glutamine, 10% FBS, 1% Pen/Strep, and 500 ug/ml Geneticin. CHO-rat mGluR5 cells were washed and treated with Optimem medium and incubated for 1–4 hours prior to loading cells. […] The plates containing the CHO-rat mGluR5 cells were then transferred to Fluorometric Imaging Plate Reader (FLIPR) (commercially available from Molecular Devices Corporation of Sunnyvale, Calif.) for the assessment of calcium mobilization flux in the presence of glutamate and in the presence or absence of test compounds. After monitoring fluorescence for 15 seconds to establish a base line, DMSO solutions containing various concentrations of the test compound diluted in loading buffer (0.05 mL of 4× dilutions for the competition curves) were added to the cell plate and fluorescence was monitored for 2 minutes. […] Plate fluorescence is then monitored for an additional 60 seconds after agonist addition. […] In each experiment, fluorescence is monitored as a function of time and the data analyzed using Microsoft Excel and GraphPad Prism. […] In each experiment each data point was determined two times.
In general terms: Calcium flux is commonly read through the fluorescence of an indicator in the cells.

The target in assay [2] is T2, Human VR1 Receptor (Homo sapiens, UniProt Q8NER1). Kind of assay: Inhibition of capsaicin-induced activation of VR1. To be noted: mean ± SEM, n = number of experiments. From the text: (§1) Methods for assaying compounds capable of inhibiting VR1 are well known to those skilled in the art, for example, those methods disclosed in U.S. Pat. No. 6,239,267 to Duckworth et al.; U.S. Pat. No. 6,406,908 to McIntyre et al.; or U.S. Pat. No. 6,335,180 to Julius et al.

Assay [3] has as its target T2, Human VR1 Receptor. Description: Inhibition of pH-induced activation of VR1. As to conditions: mean ± SEM, n = number of experiments.
Text: as §1

T2 sequence (Q8NER1 whole entry): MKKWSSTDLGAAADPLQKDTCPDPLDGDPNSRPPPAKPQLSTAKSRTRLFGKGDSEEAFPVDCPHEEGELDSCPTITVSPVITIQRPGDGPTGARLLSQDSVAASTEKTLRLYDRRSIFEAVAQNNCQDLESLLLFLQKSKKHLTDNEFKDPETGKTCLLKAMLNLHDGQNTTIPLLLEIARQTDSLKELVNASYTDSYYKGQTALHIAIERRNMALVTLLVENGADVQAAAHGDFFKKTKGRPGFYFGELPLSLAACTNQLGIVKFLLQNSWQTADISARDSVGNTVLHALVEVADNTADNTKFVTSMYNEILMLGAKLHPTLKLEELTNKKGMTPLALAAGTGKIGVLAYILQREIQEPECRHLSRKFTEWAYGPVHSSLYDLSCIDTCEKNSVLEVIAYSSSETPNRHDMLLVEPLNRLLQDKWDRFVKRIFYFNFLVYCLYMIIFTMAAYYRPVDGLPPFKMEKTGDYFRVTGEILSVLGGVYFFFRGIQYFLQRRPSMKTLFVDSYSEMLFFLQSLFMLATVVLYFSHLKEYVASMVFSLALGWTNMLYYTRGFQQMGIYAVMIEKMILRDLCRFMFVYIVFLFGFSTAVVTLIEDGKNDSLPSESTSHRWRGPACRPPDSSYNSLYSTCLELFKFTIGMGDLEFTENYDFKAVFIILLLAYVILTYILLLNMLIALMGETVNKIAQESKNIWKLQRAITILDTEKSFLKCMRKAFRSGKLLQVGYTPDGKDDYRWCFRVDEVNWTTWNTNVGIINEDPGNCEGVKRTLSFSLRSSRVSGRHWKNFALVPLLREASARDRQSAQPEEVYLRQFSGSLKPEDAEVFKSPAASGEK
T1 sequence (P31424 21-1203): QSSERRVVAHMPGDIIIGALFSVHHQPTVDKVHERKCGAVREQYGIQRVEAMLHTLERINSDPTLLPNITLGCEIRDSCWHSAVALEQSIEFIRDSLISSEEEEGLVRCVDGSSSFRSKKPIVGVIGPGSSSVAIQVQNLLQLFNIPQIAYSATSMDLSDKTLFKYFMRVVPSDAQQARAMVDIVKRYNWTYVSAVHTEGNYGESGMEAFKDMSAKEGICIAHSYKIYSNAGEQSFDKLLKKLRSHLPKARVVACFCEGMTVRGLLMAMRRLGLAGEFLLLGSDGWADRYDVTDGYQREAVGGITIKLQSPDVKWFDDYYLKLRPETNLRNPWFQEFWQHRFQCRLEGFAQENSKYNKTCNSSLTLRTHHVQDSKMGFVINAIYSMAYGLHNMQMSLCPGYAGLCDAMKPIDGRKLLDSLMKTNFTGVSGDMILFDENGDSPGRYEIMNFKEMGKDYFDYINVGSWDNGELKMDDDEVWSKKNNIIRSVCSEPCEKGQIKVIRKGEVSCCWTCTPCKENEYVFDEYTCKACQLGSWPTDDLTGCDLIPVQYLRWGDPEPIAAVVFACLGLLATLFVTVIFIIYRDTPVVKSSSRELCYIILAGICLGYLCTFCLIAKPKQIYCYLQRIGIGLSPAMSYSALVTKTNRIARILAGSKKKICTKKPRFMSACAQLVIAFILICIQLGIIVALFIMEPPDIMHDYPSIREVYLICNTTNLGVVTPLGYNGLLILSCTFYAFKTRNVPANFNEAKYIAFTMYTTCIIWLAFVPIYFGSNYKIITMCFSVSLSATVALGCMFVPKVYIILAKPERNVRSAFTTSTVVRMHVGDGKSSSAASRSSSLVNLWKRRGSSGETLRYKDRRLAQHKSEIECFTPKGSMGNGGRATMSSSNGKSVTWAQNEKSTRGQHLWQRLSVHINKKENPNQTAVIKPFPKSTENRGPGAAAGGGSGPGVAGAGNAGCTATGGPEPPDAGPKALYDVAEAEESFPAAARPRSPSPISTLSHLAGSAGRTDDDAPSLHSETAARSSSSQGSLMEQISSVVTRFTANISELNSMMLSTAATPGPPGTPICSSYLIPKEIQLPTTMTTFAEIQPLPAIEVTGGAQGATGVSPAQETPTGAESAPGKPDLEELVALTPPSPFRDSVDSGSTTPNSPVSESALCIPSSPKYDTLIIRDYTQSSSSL

With `Cc1cccc(CCNC(=O)N2CCN(c3ncccc3Cl)C[C@H]2C)c1C`, the “inhibition of mGluR5” value in assay [1] is “inhibits”.
For the compound `CC(C)(C)c1ccc(NC(=O)N2CCN(c3ncccc3F)CC2)cc1`, the IC50 in assay [2] is 1.3 ± 1.2 nM; in assay [3], 5.4 ± 2.5 nM.
